Assay results from the NIST ThermoML archive (doi:10.1021/je060354r).
± gives the expanded uncertainty stated by the source.

Assay: Boiling temperature at pressure P
Conditions: 100 kPa; Liquid; Ebulliometric method (Recirculating still)

Boiling temperature at pressure P: 81.86 ± 0.22 °C
SMILES: CC(C)O [propan-2-ol]
